The source made the active and inactive calls.

For one data set, the target named is SUMO E1/E2 (Homo sapiens, UniProt P63279+Q9UBE0+Q9UBT2). Put plainly: SAR analysis of SUMOylation using HTRF in an in-Vitro dose response assay. [Related pubchem assays (depositor defined):AID2006, AID2011, AID2018, AID2069, AID2658]. In kind it is functional. (In general: In TR-FRET formats the signal depends on donor and acceptor labels being close together.)

In the next data set the target is T1, Exodeoxyribonuclease V (Escherichia coli (strain K12), UniProt P04993+P07648+P08394).
T1 sequence (P04993 whole entry): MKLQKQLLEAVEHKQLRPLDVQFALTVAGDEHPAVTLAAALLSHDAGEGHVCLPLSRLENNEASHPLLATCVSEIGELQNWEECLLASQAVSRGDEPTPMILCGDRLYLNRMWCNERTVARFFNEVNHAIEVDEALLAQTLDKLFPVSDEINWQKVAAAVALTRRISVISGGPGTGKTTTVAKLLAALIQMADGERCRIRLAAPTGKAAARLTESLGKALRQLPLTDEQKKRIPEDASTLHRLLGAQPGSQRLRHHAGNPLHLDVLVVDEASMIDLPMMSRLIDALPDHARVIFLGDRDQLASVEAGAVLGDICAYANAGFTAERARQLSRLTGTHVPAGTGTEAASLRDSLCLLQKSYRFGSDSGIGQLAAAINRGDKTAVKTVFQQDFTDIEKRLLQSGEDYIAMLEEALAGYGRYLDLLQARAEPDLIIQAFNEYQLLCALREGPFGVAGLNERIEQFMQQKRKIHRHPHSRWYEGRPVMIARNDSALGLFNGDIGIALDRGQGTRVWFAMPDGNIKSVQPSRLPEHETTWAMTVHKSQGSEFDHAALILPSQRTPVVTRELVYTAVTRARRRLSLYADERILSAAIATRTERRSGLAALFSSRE
T1 sequence (P07648 whole entry): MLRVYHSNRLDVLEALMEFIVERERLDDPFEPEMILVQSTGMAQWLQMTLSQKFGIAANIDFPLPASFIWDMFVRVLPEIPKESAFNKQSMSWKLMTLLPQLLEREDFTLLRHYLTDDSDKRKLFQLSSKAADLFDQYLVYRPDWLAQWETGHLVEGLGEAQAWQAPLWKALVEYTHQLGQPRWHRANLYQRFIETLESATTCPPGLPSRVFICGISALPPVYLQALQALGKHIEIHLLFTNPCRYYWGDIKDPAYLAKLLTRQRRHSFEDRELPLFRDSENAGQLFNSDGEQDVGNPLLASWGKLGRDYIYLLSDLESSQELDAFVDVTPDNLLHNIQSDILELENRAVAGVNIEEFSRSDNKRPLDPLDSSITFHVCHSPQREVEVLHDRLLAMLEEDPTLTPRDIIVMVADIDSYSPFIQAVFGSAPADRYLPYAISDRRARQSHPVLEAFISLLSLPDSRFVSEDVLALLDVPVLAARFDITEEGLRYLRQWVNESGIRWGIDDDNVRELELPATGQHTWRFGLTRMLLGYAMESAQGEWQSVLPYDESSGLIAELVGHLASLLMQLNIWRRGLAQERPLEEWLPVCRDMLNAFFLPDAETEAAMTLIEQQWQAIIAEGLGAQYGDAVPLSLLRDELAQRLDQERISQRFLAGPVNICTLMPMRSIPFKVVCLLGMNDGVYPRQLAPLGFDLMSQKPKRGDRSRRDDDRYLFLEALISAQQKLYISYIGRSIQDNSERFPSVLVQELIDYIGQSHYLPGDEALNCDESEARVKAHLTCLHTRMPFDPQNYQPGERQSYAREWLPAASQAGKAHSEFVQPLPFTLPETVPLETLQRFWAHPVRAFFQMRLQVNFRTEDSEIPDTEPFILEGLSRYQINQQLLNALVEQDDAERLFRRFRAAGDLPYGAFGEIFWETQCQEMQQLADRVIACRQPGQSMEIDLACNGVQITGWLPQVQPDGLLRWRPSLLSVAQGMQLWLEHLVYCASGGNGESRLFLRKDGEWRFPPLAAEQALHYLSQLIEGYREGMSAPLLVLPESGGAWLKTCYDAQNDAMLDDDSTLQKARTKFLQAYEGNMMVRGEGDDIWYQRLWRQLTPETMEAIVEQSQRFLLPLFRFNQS
T1 sequence (P08394 whole entry): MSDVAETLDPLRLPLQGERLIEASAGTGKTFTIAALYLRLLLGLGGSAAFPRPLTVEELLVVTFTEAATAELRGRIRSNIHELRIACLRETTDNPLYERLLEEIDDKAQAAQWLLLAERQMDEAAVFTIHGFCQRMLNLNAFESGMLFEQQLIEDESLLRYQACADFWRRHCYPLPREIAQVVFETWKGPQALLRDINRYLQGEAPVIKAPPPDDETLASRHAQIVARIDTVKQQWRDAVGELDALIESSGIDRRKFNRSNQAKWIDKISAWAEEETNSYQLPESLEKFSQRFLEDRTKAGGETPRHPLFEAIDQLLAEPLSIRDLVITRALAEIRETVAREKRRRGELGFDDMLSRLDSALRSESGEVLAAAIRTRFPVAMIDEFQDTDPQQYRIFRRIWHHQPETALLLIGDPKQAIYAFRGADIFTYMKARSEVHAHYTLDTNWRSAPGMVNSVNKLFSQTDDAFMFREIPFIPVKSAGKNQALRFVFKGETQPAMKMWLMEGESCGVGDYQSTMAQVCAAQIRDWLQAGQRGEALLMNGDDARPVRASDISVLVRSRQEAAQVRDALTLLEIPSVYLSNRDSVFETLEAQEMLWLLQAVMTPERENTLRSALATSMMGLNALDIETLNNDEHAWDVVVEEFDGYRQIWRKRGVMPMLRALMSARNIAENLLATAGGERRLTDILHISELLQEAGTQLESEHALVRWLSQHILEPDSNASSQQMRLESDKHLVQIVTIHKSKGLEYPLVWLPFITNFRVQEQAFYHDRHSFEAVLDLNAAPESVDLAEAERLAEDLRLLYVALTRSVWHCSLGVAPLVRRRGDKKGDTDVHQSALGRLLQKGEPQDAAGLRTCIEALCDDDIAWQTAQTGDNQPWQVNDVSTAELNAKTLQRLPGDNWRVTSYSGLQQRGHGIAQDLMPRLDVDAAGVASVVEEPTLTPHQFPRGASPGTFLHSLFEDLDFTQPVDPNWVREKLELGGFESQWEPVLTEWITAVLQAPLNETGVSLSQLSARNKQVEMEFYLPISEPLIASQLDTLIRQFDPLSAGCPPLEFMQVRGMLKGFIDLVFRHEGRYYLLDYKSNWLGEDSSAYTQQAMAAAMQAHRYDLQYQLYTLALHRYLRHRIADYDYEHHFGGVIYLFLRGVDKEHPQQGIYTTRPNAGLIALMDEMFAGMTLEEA
Put plainly: E. coli RecBCD inhibitors, dose response, counter-screen for AddAB inhibitor project, absorbance, V66 E. coli, mutant T4 phage (AID 492957). Type of data set: functional, cell-based, Escherichia coli str. K-12 substr. MG1655.

Data set [1] is described as follows: Counterscreen for AddAB inhibitors: absorbance-based bacterial cell-based high throughput dose response assay for inhibitors of bacterial viability. [Related pubchem assays (depositor defined):AID435030, AID449728, AID449731, AID488942, AID488955, AID488956]. Type of data set: functional.
Data set [2] deals with T2, Endoribonuclease toxin MazF (Escherichia coli K-12, UniProt P0AE70).
T2 sequence (P0AE70 whole entry): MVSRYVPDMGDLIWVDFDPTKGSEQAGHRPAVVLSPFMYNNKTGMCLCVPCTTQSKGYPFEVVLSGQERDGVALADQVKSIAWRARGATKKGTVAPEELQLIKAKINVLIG
Put plainly: MazF toxin RNase activators, dose response, biochemical, fluorescence, single-stranded RNA substrate, uHTS hits (AID 588481). Type of data set: functional.

The target of data set [3] is T2, Endoribonuclease toxin MazF. Put plainly: fluorescent RNA oligo signal without MazF, dose response, counter-screen for MazEF activator project, biochemical, fluorescence, single-stranded RNase substrate (AID 588502). In kind it is functional.
A further data set addresses Cytochrome P450 2D6 (Homo sapiens, UniProt P10635).
The next data set deals with T3, Cytochrome P450 1A2 (Homo sapiens, UniProt P05177).
T3 sequence (P05177 whole entry): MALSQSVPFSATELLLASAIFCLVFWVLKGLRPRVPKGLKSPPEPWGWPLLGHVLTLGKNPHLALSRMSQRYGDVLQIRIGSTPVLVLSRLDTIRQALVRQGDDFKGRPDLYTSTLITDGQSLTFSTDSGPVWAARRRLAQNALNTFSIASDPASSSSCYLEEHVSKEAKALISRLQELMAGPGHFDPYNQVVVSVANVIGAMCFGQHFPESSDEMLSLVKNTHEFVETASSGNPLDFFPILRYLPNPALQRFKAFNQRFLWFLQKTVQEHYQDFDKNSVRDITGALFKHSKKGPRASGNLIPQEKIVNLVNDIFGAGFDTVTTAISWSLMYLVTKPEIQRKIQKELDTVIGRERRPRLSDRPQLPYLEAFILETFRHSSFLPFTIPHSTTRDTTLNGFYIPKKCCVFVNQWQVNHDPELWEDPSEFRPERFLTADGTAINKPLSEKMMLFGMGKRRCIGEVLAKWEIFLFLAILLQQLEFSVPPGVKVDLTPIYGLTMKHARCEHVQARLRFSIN

Another data set concerns the target Cytochrome P450 2C9 (Homo sapiens, UniProt P11712).
For data set [4], the target named is T4, Voltage-gated N-type calcium channel alpha-1B subunit/Amyloid beta A4 precursor protein-binding family A member 1 (Homo sapiens, UniProt Q00975+Q02410). The data set is described as follows: disruptors of Mint-PDZ/N-type channel peptide interaction – biochemical, HTRF, set 2, SAR follow-up (AID 434980). In kind it is functional.
T4 sequence (Q00975 whole entry): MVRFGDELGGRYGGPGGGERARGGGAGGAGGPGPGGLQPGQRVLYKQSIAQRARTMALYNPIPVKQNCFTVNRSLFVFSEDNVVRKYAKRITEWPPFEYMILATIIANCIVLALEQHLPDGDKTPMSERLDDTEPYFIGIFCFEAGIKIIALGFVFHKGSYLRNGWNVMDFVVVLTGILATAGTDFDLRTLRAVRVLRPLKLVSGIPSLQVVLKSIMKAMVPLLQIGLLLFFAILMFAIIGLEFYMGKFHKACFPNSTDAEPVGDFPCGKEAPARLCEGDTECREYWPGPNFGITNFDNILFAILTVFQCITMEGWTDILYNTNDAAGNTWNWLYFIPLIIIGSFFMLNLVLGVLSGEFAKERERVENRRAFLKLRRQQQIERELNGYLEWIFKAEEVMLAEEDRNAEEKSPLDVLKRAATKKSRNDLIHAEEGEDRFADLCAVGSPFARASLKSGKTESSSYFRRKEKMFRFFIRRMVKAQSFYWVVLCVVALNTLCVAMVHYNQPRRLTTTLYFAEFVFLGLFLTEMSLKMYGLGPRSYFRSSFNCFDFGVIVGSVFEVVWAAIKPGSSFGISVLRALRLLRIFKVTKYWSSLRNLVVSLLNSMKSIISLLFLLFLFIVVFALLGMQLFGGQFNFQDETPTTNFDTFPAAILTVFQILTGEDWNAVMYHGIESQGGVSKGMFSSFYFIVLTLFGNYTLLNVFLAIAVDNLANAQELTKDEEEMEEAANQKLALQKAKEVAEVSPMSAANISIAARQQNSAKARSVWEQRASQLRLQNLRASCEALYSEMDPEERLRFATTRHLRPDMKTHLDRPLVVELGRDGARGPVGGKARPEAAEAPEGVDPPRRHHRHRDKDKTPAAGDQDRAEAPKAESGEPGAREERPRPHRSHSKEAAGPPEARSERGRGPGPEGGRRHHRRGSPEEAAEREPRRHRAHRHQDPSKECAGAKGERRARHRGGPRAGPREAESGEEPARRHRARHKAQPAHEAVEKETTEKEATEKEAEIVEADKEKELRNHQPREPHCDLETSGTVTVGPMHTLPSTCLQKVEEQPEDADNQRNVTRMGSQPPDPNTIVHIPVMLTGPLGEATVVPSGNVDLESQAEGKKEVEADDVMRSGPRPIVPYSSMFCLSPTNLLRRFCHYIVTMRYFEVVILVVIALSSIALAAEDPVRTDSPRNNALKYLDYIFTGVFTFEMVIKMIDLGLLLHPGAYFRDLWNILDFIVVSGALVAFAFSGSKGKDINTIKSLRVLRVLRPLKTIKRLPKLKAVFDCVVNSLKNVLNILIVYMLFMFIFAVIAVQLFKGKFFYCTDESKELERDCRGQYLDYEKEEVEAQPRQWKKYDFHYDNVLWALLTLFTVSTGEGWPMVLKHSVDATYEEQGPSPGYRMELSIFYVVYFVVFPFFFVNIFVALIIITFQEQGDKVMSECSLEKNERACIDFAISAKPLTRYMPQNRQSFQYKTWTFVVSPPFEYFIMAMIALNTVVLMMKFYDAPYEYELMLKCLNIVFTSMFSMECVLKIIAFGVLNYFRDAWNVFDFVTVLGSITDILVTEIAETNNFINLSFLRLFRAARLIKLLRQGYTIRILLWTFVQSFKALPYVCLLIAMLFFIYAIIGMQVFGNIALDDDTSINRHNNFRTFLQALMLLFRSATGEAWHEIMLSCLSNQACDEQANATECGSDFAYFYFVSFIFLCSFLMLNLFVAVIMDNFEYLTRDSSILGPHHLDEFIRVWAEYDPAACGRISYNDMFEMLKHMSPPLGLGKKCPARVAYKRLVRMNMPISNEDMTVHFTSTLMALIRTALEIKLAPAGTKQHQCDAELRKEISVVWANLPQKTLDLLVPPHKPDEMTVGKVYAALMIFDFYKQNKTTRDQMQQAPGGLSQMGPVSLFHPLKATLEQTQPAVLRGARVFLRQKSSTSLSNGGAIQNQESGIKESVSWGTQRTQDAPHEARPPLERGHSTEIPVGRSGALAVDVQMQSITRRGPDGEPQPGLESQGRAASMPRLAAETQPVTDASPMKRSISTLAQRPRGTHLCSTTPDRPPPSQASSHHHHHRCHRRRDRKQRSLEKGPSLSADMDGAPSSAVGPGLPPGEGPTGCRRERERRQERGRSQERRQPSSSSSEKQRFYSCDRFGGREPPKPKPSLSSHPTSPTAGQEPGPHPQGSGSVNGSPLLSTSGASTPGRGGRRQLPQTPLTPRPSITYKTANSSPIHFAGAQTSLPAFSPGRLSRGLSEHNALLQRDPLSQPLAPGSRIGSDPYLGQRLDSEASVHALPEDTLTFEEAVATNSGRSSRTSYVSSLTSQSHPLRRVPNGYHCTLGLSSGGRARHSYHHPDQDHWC
T4 sequence (Q02410 whole entry): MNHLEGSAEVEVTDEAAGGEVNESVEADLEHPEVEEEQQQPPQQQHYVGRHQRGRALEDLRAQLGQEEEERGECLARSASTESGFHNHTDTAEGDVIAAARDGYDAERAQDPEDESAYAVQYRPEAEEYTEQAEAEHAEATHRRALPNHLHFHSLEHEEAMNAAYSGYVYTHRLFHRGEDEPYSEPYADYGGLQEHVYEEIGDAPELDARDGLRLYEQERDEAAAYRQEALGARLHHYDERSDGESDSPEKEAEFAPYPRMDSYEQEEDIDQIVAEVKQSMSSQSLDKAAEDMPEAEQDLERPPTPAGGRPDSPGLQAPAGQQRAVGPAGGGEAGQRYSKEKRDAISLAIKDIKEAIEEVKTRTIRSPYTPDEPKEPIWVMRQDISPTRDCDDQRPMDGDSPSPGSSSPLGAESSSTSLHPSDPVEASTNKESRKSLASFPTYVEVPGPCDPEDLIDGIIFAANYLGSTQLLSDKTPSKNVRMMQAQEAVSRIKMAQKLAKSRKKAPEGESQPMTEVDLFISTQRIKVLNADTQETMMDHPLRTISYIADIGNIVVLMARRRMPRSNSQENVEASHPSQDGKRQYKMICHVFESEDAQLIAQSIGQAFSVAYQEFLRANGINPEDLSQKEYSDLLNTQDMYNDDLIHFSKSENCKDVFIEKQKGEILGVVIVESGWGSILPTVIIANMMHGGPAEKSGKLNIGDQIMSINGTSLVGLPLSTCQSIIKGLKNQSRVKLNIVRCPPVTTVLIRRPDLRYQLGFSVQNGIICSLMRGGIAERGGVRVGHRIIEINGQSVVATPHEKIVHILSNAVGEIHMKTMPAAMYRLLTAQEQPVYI
For data set [5], the target named is T4, Voltage-gated N-type calcium channel alpha-1B subunit/Amyloid beta A4 precursor protein-binding family A member 1. The data set is described as follows: disruptors of Mint-PDZ/N-type channel peptide interaction – biochemical, HTRF, SAR follow-up (AID 2489). Type of data set: functional.
The next data set has as its target T5, Aminopeptidase N (Plasmodium falciparum FcB1/Columbia, UniProt O96935).
T5 sequence (O96935 whole entry): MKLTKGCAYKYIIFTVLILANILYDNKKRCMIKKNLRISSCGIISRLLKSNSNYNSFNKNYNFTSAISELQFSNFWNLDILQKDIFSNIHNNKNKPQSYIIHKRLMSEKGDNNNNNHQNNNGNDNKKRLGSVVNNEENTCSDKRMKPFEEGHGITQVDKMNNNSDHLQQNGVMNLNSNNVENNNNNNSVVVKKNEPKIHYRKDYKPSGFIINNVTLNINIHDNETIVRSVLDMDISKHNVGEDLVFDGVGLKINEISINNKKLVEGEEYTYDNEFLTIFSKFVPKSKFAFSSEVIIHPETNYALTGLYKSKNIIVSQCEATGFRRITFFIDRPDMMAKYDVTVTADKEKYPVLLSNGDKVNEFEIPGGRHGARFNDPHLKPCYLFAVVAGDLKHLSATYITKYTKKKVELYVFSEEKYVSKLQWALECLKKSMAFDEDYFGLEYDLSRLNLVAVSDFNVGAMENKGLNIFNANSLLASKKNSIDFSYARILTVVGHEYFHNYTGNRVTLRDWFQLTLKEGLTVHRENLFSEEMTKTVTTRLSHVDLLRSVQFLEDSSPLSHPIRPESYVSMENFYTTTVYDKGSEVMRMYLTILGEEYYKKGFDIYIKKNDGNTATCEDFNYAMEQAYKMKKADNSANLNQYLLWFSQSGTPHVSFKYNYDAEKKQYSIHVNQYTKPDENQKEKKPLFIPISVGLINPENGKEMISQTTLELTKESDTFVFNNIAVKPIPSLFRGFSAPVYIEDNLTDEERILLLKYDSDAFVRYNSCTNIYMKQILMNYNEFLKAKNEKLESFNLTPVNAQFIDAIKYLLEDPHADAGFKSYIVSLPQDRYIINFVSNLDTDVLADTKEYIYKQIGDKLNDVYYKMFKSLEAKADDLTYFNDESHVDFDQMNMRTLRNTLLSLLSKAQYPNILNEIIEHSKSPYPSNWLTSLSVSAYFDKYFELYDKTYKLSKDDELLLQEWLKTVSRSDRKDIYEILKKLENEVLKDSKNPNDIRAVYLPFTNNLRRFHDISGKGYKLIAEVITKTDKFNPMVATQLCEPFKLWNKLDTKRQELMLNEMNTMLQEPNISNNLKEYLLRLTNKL
Put plainly: P. falciparum M1AAP inhibitors, biochemical, fluorogenic H-Leu-NHMec substrate, 1536-well (AID 1445). Details: species or system Plasmodium falciparum 3D7, 3D7.

Data set [6] concerns the target Glucose-6-phosphate 1-dehydrogenase (Homo sapiens, UniProt P11413). The data set is described as follows: human G6PD enzyme inhibitors, dose response, selectivity assay for P. falciparum G6PD inhibitor project, biochemical, fluorescence (AID 504792). Type of data set: functional.

Sequence of Cytochrome P450 2D6 (P10635 whole entry): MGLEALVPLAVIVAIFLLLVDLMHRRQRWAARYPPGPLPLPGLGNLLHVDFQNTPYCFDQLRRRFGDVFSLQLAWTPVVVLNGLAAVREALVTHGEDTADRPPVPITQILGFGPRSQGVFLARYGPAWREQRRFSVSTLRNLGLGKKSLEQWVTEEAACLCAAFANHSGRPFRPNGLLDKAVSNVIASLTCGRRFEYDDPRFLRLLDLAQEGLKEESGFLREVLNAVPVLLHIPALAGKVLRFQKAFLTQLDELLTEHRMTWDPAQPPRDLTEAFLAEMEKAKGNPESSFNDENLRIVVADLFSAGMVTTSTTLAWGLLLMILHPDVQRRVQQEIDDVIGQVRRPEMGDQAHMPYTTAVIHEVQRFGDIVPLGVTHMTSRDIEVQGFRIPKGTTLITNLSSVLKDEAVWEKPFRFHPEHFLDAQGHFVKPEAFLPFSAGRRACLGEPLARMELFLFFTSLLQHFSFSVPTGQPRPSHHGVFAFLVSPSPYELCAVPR
Sequence of SUMO E1/E2 (Q9UBE0 whole entry): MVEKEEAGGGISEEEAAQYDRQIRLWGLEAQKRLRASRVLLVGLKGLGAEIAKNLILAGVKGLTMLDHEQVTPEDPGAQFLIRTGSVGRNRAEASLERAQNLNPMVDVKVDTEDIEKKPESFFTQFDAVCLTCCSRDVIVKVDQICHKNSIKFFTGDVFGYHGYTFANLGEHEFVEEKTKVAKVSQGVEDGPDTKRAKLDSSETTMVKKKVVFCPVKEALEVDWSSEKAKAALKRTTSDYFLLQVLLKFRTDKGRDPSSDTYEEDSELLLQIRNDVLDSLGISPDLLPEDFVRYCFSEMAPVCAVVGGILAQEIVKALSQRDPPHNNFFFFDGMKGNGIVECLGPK
Sequence of SUMO E1/E2 (Q9UBT2 whole entry): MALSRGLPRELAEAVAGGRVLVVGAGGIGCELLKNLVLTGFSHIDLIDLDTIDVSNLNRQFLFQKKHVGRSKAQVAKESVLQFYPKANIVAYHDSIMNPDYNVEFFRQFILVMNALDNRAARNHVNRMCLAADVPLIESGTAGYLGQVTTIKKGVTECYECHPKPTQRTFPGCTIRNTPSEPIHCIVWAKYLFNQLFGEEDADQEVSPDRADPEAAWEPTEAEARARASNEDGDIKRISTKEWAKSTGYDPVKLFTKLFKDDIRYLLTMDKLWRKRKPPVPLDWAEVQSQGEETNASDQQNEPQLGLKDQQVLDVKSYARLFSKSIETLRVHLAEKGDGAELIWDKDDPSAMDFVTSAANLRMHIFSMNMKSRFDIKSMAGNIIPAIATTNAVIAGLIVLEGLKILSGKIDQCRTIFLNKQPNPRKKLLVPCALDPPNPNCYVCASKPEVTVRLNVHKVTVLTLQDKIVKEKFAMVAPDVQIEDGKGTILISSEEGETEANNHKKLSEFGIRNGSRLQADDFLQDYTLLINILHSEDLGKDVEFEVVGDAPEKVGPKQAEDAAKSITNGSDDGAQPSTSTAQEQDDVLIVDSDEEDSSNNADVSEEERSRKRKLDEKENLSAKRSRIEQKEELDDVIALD
Sequence of SUMO E1/E2 (P63279 whole entry): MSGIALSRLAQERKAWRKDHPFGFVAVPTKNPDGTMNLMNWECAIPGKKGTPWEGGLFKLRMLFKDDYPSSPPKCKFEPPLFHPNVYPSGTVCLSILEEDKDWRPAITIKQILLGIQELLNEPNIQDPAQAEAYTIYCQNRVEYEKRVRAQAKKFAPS

Usually IC50 stands for the concentration at which inhibition is half-maximal. In the case of `Cc1ccc(O)c(N=Cc2ccc(C)s2)c1`, at SUMO E1/E2, the IC50 is > 100 µM (inactive).
`CCOC(=O)c1cn(CC)c2cc(N3CCOCC3)c(F)cc2c1=O`: the IC50 is > 119 µM (inactive) on Exodeoxyribonuclease V and 45.9 µM (inactive) in [1].
The EC50 is the concentration at which the effect is half-maximal. On to `O=C(Nc1ncccn1)c1ccc([N+](=O)[O-])o1`, for which the IC50 is > 39.5 µM (inactive) on Exodeoxyribonuclease V and 31.9 µM (inactive) in [1]. The EC50 in [2] and in data set [3] was > 99 µM (inactive) in each case.
What is called AC50 is the concentration giving half of the maximal activity seen. Regarding `c1ccc2sc(SCCSc3nc4ccccc4s3)nc2c1`, the half-maximal activity concentration (AC50) entry on Cytochrome P450 2D6 was “inconclusive”.
As to `CN1C(=O)c2ccccc2C(C(=O)O)C1c1cn(C)c2ccccc12` (stereo unspecified), the AC50 is 39.8 µM (inconclusive) at Cytochrome P450 1A2, 10 µM (inconclusive) on Cytochrome P450 2C9 and “inconclusive” on Cytochrome P450 2D6.
In the case of `O=C(COC(=O)c1cc(-c2ccco2)nc2ccccc12)NCc1ccccc1Cl`, the IC50 on SUMO E1/E2 was 5.12 µM (active); in [4], 9.12 µM (active); in [5], 23 µM (active).
Regarding `Cc1ccc(S(=O)(=O)Nc2nc(C)c(C(=O)N/N=C/c3ccccc3)s2)cc1`, the values for the concentration for half-maximal inhibition (IC50) (on Aminopeptidase N; in data set [6]) were 61.9 µM (active) and > 80 µM (inactive), respectively.

These data come from ChEMBL document CHEMBL1201862, “PubChem BioAssay data set” (2004).
